Where two headings read alike, the source gives them in different places.
Key:
FGFR2 = FGFR2 (Homo sapiens (Human), UniProt P21802); experiment: FGFR Enzymatic Assay (FRET peptide phosphorylation), FGFR2; assay type: biochemical; conditions: pre-incubated for 4 hours
Procedure: (§1) The inhibitor potency of the exemplified compounds was measured in an enzyme assay that measures peptide phosphorylation using FRET measurements to detect product formation. Inhibitors were serially diluted in DMSO and a volume of 0.5 μL was transferred to the wells of a 384-well plate.
(§2) The enzymes were purchased from Millipore or Invitrogen.
(§3) GraphPad prism3 was used to analyze the data.

FGFR3 enzyme = FGFR3 enzyme (Homo sapiens (Human), UniProt P22607); experiment: FGFR Enzymatic Assay (FRET peptide phosphorylation), FGFR3; assay type: biochemical; conditions: for FGFR1/FGFR3 IC50 ratio / FGFR4/FGFR3 IC50 ratio: FGFR3 selectivity
Procedure: as §1, §3

FGFR1 = FGFR1 (Homo sapiens (Human), UniProt P11362); experiment: FGFR Enzymatic Assay (FRET peptide phosphorylation), FGFR1
FGFR4 = FGFR4 (Homo sapiens (Human), UniProt P22455); experiment: FGFR Enzymatic Assay (FRET peptide phosphorylation), FGFR4; assay type: biochemical; conditions: pre-incubated for 4 hours
Procedure: as §1, §2, §3

[1] = pre-incubated for 4 hours, read-out: FGFR3 IC50
[2] = FGFR1 IC50 (nM), pre-incubated for 4 hours
[3] = read-out: FGFR1 IC50, pre-incubated for 4 hours

FGFR4, sequence (P22455 22-802): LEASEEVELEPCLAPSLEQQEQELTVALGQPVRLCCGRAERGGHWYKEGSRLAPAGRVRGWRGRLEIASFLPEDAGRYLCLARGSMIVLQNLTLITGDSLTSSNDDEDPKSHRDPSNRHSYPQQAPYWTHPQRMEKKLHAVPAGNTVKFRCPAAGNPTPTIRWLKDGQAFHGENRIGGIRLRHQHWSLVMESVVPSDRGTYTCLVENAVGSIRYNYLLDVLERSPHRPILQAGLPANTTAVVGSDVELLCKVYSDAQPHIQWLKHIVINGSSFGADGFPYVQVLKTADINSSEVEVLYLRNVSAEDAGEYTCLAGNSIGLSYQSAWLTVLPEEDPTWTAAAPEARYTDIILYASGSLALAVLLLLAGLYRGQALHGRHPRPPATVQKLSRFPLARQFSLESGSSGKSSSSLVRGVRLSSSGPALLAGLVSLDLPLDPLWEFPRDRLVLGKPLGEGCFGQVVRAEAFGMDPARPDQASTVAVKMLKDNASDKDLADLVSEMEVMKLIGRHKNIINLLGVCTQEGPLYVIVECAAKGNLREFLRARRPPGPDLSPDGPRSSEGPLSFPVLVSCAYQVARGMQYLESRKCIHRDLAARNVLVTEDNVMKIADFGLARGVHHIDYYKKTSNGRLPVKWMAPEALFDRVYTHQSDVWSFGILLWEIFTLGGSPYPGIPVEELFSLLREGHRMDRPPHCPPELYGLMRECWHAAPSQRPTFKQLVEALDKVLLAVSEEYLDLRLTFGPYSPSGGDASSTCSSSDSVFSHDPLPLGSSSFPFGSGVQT
FGFR3 enzyme, sequence (P22607 23-806): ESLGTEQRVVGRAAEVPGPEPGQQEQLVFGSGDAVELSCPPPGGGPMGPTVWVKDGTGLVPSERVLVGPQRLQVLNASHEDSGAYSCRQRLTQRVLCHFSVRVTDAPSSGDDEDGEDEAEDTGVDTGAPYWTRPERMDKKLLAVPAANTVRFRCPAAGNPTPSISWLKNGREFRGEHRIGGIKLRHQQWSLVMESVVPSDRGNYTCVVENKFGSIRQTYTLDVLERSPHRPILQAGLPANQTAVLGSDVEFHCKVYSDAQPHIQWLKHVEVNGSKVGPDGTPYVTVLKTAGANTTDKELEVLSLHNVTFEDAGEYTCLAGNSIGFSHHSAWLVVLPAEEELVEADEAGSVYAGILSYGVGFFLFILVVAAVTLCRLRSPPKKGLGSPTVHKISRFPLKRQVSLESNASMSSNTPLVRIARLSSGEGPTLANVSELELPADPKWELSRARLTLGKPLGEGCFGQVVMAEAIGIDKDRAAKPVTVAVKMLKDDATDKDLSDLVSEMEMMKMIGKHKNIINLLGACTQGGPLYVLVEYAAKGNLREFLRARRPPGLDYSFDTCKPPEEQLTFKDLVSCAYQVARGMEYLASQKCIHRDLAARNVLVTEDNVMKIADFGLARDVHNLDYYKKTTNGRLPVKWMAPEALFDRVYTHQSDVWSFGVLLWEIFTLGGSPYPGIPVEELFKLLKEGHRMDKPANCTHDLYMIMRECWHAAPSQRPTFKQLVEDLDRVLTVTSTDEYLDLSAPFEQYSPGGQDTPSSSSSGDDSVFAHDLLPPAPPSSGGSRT
FGFR1, sequence (P11362 22-822): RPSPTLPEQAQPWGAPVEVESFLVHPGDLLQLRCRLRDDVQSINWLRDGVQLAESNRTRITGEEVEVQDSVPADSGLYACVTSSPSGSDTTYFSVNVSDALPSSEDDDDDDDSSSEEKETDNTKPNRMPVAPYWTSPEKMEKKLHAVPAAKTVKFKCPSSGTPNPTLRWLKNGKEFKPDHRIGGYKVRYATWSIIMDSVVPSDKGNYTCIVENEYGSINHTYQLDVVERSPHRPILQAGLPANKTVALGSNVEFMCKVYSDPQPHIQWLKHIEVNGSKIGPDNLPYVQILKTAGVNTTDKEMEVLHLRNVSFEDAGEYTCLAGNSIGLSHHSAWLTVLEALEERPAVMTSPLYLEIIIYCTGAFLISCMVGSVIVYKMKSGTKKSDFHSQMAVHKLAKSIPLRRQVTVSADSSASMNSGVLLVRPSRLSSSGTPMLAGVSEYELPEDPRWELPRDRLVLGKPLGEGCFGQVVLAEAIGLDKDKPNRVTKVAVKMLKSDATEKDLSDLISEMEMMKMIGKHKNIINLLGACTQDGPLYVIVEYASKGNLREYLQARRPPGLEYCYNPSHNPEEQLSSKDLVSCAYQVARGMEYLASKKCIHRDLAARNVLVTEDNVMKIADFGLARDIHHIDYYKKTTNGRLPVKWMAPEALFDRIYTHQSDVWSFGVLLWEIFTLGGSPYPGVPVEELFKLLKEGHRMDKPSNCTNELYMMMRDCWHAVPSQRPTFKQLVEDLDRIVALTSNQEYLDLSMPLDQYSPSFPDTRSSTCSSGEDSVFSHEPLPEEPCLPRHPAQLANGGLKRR
FGFR2, sequence (P21802 22-821): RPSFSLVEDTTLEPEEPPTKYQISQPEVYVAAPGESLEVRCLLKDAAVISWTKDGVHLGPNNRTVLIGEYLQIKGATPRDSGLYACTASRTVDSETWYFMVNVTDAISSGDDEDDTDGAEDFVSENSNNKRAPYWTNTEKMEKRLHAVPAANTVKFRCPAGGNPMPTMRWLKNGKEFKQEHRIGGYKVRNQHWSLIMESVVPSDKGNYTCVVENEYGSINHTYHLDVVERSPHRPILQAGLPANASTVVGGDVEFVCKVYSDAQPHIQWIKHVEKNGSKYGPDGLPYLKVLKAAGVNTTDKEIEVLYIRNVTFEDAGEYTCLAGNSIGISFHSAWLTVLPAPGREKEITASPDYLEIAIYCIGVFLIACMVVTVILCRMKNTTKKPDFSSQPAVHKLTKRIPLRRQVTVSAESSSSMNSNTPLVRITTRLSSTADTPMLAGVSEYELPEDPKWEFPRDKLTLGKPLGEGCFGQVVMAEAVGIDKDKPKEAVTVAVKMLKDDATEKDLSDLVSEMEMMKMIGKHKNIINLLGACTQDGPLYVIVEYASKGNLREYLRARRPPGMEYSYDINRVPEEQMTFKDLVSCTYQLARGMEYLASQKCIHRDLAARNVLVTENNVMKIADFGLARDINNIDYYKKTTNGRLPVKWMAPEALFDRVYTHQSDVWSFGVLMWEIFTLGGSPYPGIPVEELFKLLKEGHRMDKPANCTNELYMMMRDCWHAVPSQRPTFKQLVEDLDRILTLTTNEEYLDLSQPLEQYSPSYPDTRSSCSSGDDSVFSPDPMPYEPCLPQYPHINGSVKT

Row | IC50 (FGFR2) | FGFR1/FGFR3 IC50 ratio (FGFR3 enzyme; pre-incubated for 4 hours) | FGFR4/FGFR3 IC50 ratio (FGFR3 enzyme; pre-incubated for 4 hours) | IC50 (FGFR3 enzyme; [1]) | IC50 (FGFR1; [2]) | IC50 (FGFR4) | IC50 (FGFR1; [3]) | FGFR1/FGFR4 IC50 ratio (FGFR4; FGFR4 selectivity) | FGFR2/FGFR4 IC50 ratio (FGFR4; FGFR4 selectivity) | FGFR3/FGFR4 IC50 ratio (FGFR4; FGFR4 selectivity) | SMILES | IC50 (FGFR3 enzyme) | IC50 (FGFR1)
1 | < 10 nM | >5 | >5 | < 10 nM | 30 to 200 nM | 10 to 30 nM |  |  |  |  | CCN1C(=O)N(c2c(F)c(OC)cc(OC)c2F)Cc2cnc(-c3ccc(CC#N)cc3)cc21 [Example 180, 2-(4-(3-(2,6-difluoro-3,5-dimethoxyphenyl)-1-ethyl-2-oxo-1,2,3,4-tetrahydropyrido[4,3-d]pyrimidin-7-yl)phenyl)acetonitrile] |  | 
2 | < 10 nM | >5 | >3 | < 10 nM | 30 to 200 nM | 30 to 200 nM |  |  |  |  | COc1cc(OC)c(F)c(N2Cc3cnc(-c4cn(C)nc4C)cc3N(c3ccc(C#N)cn3)C2=O)c1F [Example 79, 6-(3-(2,6-difluoro-3,5-dimethoxyphenyl)-7-(1,3-dimethyl-1H-pyrazol-4-yl)-2-oxo-3,4-dihydropyrido[4,3-d]pyrimidin-1(2H)-yl)nicotinonitrile] |  | 
3 | < 10 nM | >5 |  | < 10 nM | 30 to 200 nM | < 10 nM |  |  |  |  | CCN1C(=O)N(c2c(F)c(OC)cc(OC)c2F)Cc2cnc(-c3cccnc3)cc21 [Example 23, 3-(2,6-difluoro-3,5-dimethoxyphenyl)-1-ethyl-7-(pyridin-3-yl)-3,4-dihydropyrido[4,3-d]pyrimidin-2(1H)-one] |  | 
4 | < 10 nM | >1 | >5 | < 10 nM | 10 to 30 nM | 10 to 30 nM |  |  |  |  | COc1cc(OC)c(F)c(N2Cc3cnc(-c4cn(C)nc4C)cc3N(CC3CC3)C2=O)c1F [Example 29, 1-(cyclopropylmethyl)-3-(2,6-difluoro-3,5-dimethoxyphenyl)-7-(1,3-dimethyl-1H-pyrazol-4-yl)-3,4-dihydropyrido[4,3-d]pyrimidin-2(1H)-one] |  | 
5 | 10 to 30 nM | >5 | >5 | 10 to 30 nM | 30 to 200 nM | 30 to 200 nM |  |  |  |  | COc1cc(OC)c(F)c(N2Cc3cnc(-c4cn(C)nc4C)cc3N(c3cnccn3)C2=O)c1F [Example 70, 3-(2,6-difluoro-3,5-dimethoxyphenyl)-7-(1,3-dimethyl-1H-pyrazol-4-yl)-1-(pyrazin-2-yl)-3,4-dihydropyrido[4,3-d]pyrimidin-2(1H)-one] |  | 
6 | 10 to 30 nM | >3 | >5 | 10 to 30 nM | 30 to 200 nM | 30 to 200 nM |  |  |  |  | COc1cc(OC)c(F)c(N2Cc3cnc(-c4cn(C)nc4C)cc3N(c3cc(F)cc(F)c3)C2=O)c1F [Example 103, 3-(2,6-difluoro-3,5-dimethoxyphenyl)-1-(3,5-difluorophenyl)-7-(1,3-dimethyl-1H-pyrazol-4-yl)-3,4-dihydropyrido[4,3-d]pyrimidin-2(1H)-one] |  | 
7 | 10 to 30 nM | >5 | >5 | 10 to 30 nM | 30 to 200 nM | 30 to 200 nM |  |  |  |  | COc1cc(OC)c(F)c(N2Cc3cnc(-c4cn(C)nc4C)cc3N(c3ccn(C)n3)C2=O)c1F [Example 100, 3-(2,6-difluoro-3,5-dimethoxyphenyl)-7-(1,3-dimethyl-1H-pyrazol-4-yl)-1-(1-methyl-1H-pyrazol-3-yl)-3,4-dihydropyrido[4,3-d]pyrimidin-2(1H)-one] |  | 
8 | < 10 nM | >5 | >1 | < 10 nM | 10 to 30 nM | < 10 nM |  |  |  |  | COc1cc(OC)c(F)c(N2Cc3cnc(-c4cnn(CC5CCCS(=O)(=O)N5)c4)cc3C3(CC3)C2=O)c1F (stereo not shown) [Example 162, 2′-(2,6-difluoro-3,5-dimethoxyphenyl)-6′-{1-[(1,1-dioxido-1,2-thiazinan-3-yl)methyl]-1H-pyrazol-4-yl}-1′H-spiro[cyclopropane-1,4′-[2,7]naphthyridin]-3′(2′H)-one] |  | 
9 | > 200 nM |  |  | > 200 nM |  | 10 to 30 nM | > 200 nM | >100 | >10 | >25 | COc1cc(OC)c(F)c(N2Cc3cnc(-c4nn(CC#N)cc4C#N)cc3C3(CC3)C2=O)c1F [Example 174, 1-(cyanomethyl)-3-(2′-(2,6-difluoro-3,5-dimethoxyphenyl)-3′-oxo-2′,3′-dihydro-1′H-spiro[cyclopropane-1,4′-[2,7]naphthyridine]-6′-yl)-1H-pyrazole-4-carbonitrile] |  | 
10 | < 10 nM | >3 | >3 | < 10 nM |  | 10 to 30 nM | < 10 nM |  |  |  | COc1cc(OC)c(F)c(N2Cc3cnc(-c4cnn(CC5CN(C(C)=O)C5)c4)cc3C3(CC3)C2=O)c1F [Example 167, 6′-(1-((1-acetylazetidin-3-yl)methyl)-1H-pyrazol-4-yl)-2′-(2,6-difluoro-3,5-dimethoxyphenyl)-1′H-spiro[cyclopropane-1,4′-[2,7]naphthyridin]-3′(2′H)-one] |  | 
11 | 30 to 200 nM | >1 | >1 | 30 to 200 nM |  | > 200 nM | > 200 nM |  |  |  | CCN1C(=O)N(c2c(F)c(OC)cc(OC)c2F)Cc2cnc(-c3cn(CC(=O)N4CCOCC4)nc3C)cc21 [Example 51, 3-(2,6-difluoro-3,5-dimethoxyphenyl)-1-ethyl-7-(3-methyl-1-(2-morpholino-2-oxoethyl)-1H-pyrazol-4-yl)-3,4-dihydropyrido[4,3-d]pyrimidin-2(1H)-one] |  | 
12 | < 10 nM | >5 | >10 | < 10 nM | 10 to 30 nM | 30 to 200 nM |  |  |  |  | COc1cc(OC)c(F)c(N2Cc3cnc(-c4cn(C)nc4C)cc3N(c3ccc(-n4cccn4)cc3)C2=O)c1F [Example 77, 1-(4-(1H-pyrazol-1-yl)phenyl)-3-(2,6-difluoro-3,5-dimethoxyphenyl)-7-(1,3-dimethyl-1H-pyrazol-4-yl)-3,4-dihydropyrido[4,3-d]pyrimidin-2(1H)-one] |  | 
13 | < 10 nM | >3 | >5 | < 10 nM | 10 to 30 nM | 30 to 200 nM |  |  |  |  | COc1cc(OC)c(F)c(N2Cc3cnc(-c4cn(C)nc4C)cc3N(c3ccc4[nH]ncc4c3)C2=O)c1F [Example 134, 3-(2,6-difluoro-3,5-dimethoxyphenyl)-7-(1,3-dimethyl-1H-pyrazol-4-yl)-1-(1H-indazol-5-yl)-3,4-dihydropyrido[4,3-d]pyrimidin-2(1H)-one] |  | 
14 | < 10 nM | >3 | >5 | 10 to 30 nM | 30 to 200 nM | 30 to 200 nM |  |  |  |  | COc1cc(OC)c(F)c(N2Cc3cnc(-c4cn(C)nc4C)cc3N(c3ccc(C(=O)N(C)C)cc3)C2=O)c1F [Example 113, 4-(3-(2,6-difluoro-3,5-dimethoxyphenyl)-7-(1,3-dimethyl-1H-pyrazol-4-yl)-2-oxo-3,4-dihydropyrido[4,3-d]pyrimidin-1(2H)-yl)-N,N-dimethylbenzamide] |  | 
15 | < 10 nM | >5 | >10 | < 10 nM | 30 to 200 nM | 30 to 200 nM |  |  |  |  | COc1cc(OC)c(F)c(N2Cc3cnc(-c4cn(C)nc4C)cc3N(c3cncc(C)n3)C2=O)c1F [Example 87, 3-(2,6-difluoro-3,5-dimethoxyphenyl)-7-(1,3-dimethyl-1H-pyrazol-4-yl)-1-(6-methylpyrazin-2-yl)-3,4-dihydropyrido[4,3-d]pyrimidin-2(1H)-one] |  | 

Row | SMILES | IC50 (FGFR2) | FGFR1/FGFR3 IC50 ratio (FGFR3 enzyme; pre-incubated for 4 hours) | FGFR4/FGFR3 IC50 ratio (FGFR3 enzyme; pre-incubated for 4 hours) | IC50 (FGFR3 enzyme; [1]) | IC50 (FGFR1; [2]) | IC50 (FGFR4) | IC50 (FGFR1; [3]) | FGFR1/FGFR4 IC50 ratio (FGFR4; FGFR4 selectivity) | FGFR2/FGFR4 IC50 ratio (FGFR4; FGFR4 selectivity) | FGFR3/FGFR4 IC50 ratio (FGFR4; FGFR4 selectivity) | IC50 (FGFR3 enzyme) | IC50 (FGFR1)
16 | COc1cc(OC)c(F)c(N2Cc3cnc(-c4cn(C)nc4C)cc3N(c3ccc(F)c(F)c3)C2=O)c1F [Example 102, 3-(2,6-difluoro-3,5-dimethoxyphenyl)-1-(3,4-difluorophenyl)-7-(1,3-dimethyl-1H-pyrazol-4-yl)-3,4-dihydropyrido[4,3-d]pyrimidin-2(1H)-one] | 10 to 30 nM | >3 | >10 | 10 to 30 nM | 30 to 200 nM | 30 to 200 nM |  |  |  |  |  | 
17 | CCN1C(=O)N(c2cc(OC)cc(C(=O)NC)c2F)Cc2cnc(-c3ccc(C4(C#N)CCC4)nc3)cc21 [Example 28, 3-(7-(6-(1-cyanocyclobutyl)pyridin-3-yl)-1-ethyl-2-oxo-1,2-dihydropyrido[4,3-d]pyrimidin-3(4H)-yl)-2-fluoro-5-methoxy-N-methylbenzamide] | 30 to 200 nM |  |  | 30 to 200 nM |  | > 200 nM | > 200 nM |  |  |  |  | 
18 | COc1cc(OC)c(F)c(N2Cc3cnc(-c4cn(C)nc4C)cc3N(C3CCN(C(C)=O)CC3)C2=O)c1F [Example 43, 1-(1-acetylpiperidin-4-yl)-3-(2,6-difluoro-3,5-dimethoxyphenyl)-7-(1,3-dimethyl-1H-pyrazol-4-yl)-3,4-dihydropyrido[4,3-d]pyrimidin-2(1H)-one] | 30 to 200 nM | >10 | >5 |  |  | 30 to 200 nM | > 200 nM |  |  |  | 10 to 30 nM | 
19 | COc1cc(OC)c(F)c(N2Cc3cnc(-c4cn(C)nc4C)cc3N(C3CCN(S(C)(=O)=O)CC3)C2=O)c1F [Example 71, 3-(2,6-difluoro-3,5-dimethoxyphenyl)-7-(1,3-dimethyl-1H-pyrazol-4-yl)-1-(1-(methylsulfonyl)piperidin-4-yl)-3,4-dihydropyrido[4,3-d]pyrimidin-2(1H)-one] | 30 to 200 nM | >5 | >3 |  |  | 30 to 200 nM |  |  |  |  | 10 to 30 nM | 30 to 200 nM

Reference: patent US9708318B2, “Bicyclic heterocycles as FGFR4 inhibitors” (Incyte Corporation, priority 2015, dated 2017)
